Series [1] can be described thus: Photostability: iodide formed after visible light irradiation. Particulars: for Iodide formed: 50 mM agent, 10 mM TRIS, pH 7.4, VIS 72 h. It is filed as physicochemical. How it is done: (§1) Aqueous solutions comprising iodinated contrast agents were prepared and evaluated in a photolysis chamber as described in the ICH guidance document, Q1B Photostability Testing of New Drug Substances and Products, available from the US Food and Drug Administration, incorporated herein by reference. The solutions were placed in 1 cm×1 cm (3 mL) quartz cuvettes having 2 clear sides and 2 sides etched. Lids were placed on the cuvettes and sealed with a wrap of Parafilm® around the joint. The cuvettes were placed in a photolysis chamber, upright on a flat surface beneath and centered between two horizontal 24 inch fluorescent lamps, (GE, black light F20T12, 20 watt for ultraviolet, or Philips F20T12/CW, 20 watt for visible) placed 6 cm apart. The cuvettes were positioned such that their two clear sides were facing the two lamps.
(§2) Cuvettes were spaced ˜2 cm from each other, and no closer than 15 cm from the ends of the lamps. This positioning allowed reproducible light exposure to all cuvettes.
(§3) The lamps were switched on and the solutions irradiated for 18 to 24 hours for the ultraviolet (UV) lamps or 72 to 90 hours for the visible (VIS) light lamps. At the end of the selected irradiation time, the cuvettes were removed from the photolysis chamber and mixed by inversion 2-times. The caps were then removed and 40 microliter aliquots taken and diluted with 1 mL of an aqueous solution containing ˜0.9 mg/mL sodium thiosulfate. The thiosulfate solution converted any I2, IO3^−, and I3^− present in the solution tor such that total iodine species could be determined in one assay.
(§4) The diluted solutions were assayed by high pressure liquid chromatography (HPLC) using a 4.6×250 mm, C-18, 5 micron particle size, reversed phase column with detection at 280 nm for the contrast agent and 230 nm for the thiosulfate and the iodide ion (r). A mobile phase of 30:70 methanol:aqueous buffer (50 mM KH2PO4+7 mL/L 40% tetrabutyl ammonium hydroxide) at 0.75 mL/min was used for elution. Injection volume was 20 microliters. External standards were prepared containing each contrast agent, potassium iodide, and sodium thiosulfate solution and analyzed along with the irradiated samples. The results were reported as weight percentage iodide formed (mg iodide/mg contrast agent times 100).
(§5) The absorbance readings at 400 nm due to light exposure were plotted against time of exposure and the resulting correlation used to determine the UV and VIS light exposure. A change in absorbance reading of 0.45 was assumed equivalent to 200 watt hours/square meter for the UV light and a change of 0.51 was assumed equivalent to 1.2 million lux hours for the VIS light. The UV lamps provided 6.62 watts/square meter and the VIS lamps provided 7180 lux.
Aqueous solutions were prepared containing 473 mM iohexol (180 mg 1/mL), 10 mM tromethamine HCl buffer (TRIS), with and without various SCDs. The pH of the solutions was adjusted to 7.4 with 0.1N hydrochloric acid. Aliquots of the solutions were irradiated with ultraviolet (UV) light for 18 hours (119 watt hours/m^2) and other aliquots irradiated with visible (VIS) light for 90 hours (0.65 million lux hours). The solutions were then processed, analyzed and reported as in Example 2, with the exception that the iohexol peak was measured at 300 nm for both samples and standards. Results of the study are presented in the table below along with the SCD used. The SCDs included derivatives prepared from alpha, beta, and gamma CD to evaluate the effect of CD cavity size. Various substituents, including one derivative containing more than one type of substituent, and degrees of substitution (DS) were also evaluated.
Aqueous solutions were prepared containing 50 mM iodinated contrast agent, 10 mM tromethamine HCl buffer (TRIS), with and without sulfobutylether beta-cyclodextrin with an average degree of substitution-7 (SBE7-β-CD), or 2-hydroxypropyl beta-cyclodextrin with an average degree of substitution of ˜6.3 (HP6.3-β-CD) or ˜4.3 (HP4.3-β-CD). […]

A short description of series [2]: Photostability: iodide formed after UV light irradiation. It is filed as physicochemical. Particulars: 18 h, 50 mM. How it is done:
as §1, §2, §3, §4, §5
Aqueous solutions were prepared containing 50 mM contrast agent by diluting commercially available solutions with water. Tromethamine HCl buffer (TRIS), was added to solutions as necessary to increase the TRIS content to that of the commercial product before dilution.
SCD was added to the solutions at various mole ratios and the pH of the solutions adjusted to 7.4 with 0.1N hydrochloric acid or 0.1N sodium hydroxide. The solutions were irradiated with UV light for 18 hours (119 watt hours/m^2) then processed, analyzed and reported as in Example 2. The SCDs evaluated were sulfobutyl ether beta-cyclodextrin with an average degree of substitution of 7 (SBE-704CD), and two 2-hydroxypropyl beta-cyclodextrin derivatives having 6.3 (HP-6.3n/CD) and 4.3 (HP-4.3-βCD) average degrees of substitution.
Aqueous solutions were prepared containing 50 mM contrast agent by diluting commercially available solutions with distilled water. Tromethamine HCl buffer (TRIS), was added to some solutions to increase the buffer content.
The solutions were divided and SBE-7-CD added to one aliquot at a contrast agent:SCD mole ratio of 1:1. The pH of the solutions was adjusted to 5, 6, 7, 7.4 or 8 with 0.1N hydrochloric acid or sodium hydroxide. […]

Experimental findings from patent US20220096664A1, “STABILIZED FORMULATIONS CONTAINING IODINATED CONTRAST AGENTS AND CYCLODEXTRINS” (Verrow Pharmaceuticals, Inc., priority 2012, published 2022) are described below.

Structures are written as SMILES.

In the case of `O=C(NCC(O)CO)c1c(I)c(C(=O)NCC(O)CO)c(I)c(N(CCO)C(=O)CO)c1I` (stereo not shown) [Ioversol, ioversol], the Iodide formed worked out at 0.301 wt % in series [1] (agent:SBE7-β-CD 1:0.1) and 0.304 wt % in series [1] (no SCD (1:0)). Also, in series [1] (72 h, 50 mM, pH 7.4), the “percent change in iodide degradants formed in the presence of the SCD” value is reported as “(−1%)”. Besides, the results for the “% Change in iodide degradants formed in the presence of the SCD” value in series [2] (pH 5), in series [2] (pH 7.4) and in series [2] (pH 8) were −43.6%, −58.5% and −47%, respectively.
Take `CC(=O)N(CC(O)CN(C(C)=O)c1c(I)c(C(=O)NCC(O)CO)c(I)c(C(=O)NCC(O)CO)c1I)c1c(I)c(C(=O)NCC(O)CO)c(I)c(C(=O)NCC(O)CO)c1I` (stereo not shown) [Iodixanol, iodixanol]: the Iodide formed in series [1] (agent:SBE7-β-CD 1:0.1) was 0.142 wt %; in series [1] (no SCD (1:0)), 0.153 wt %.
Consider `COCC(=O)Nc1c(I)c(C(=O)NCC(O)CO)c(I)c(C(=O)N(C)CC(O)CO)c1I` (stereo not shown) [Iopromide, iopromide], for which the Iodide formed in series [1] (agent:SBE7-β-CD 1:0.1) stood at 0.269 wt %; in series [1] (no SCD (1:0)), 0.311 wt %.
